Data published in patent US20220296623A1, “REDUCED NICOTINAMIDERIBOSIDES FOR TREATING OR PREVENTING KIDNEY DISEASE” (SOCIETE DES PRODUITS NESTLE S.A., priority 2019, published 2022).

Columns and labels:
AML12 hepatocytes = test: Intracellular NAD+ levels in AML12 hepatocytes after NRH or NR treatment (dose-response, time course); type: cell-based
Excerpt: (§1) Levels of NRH and other NAD-related metabolites in biological samples were obtained by using a cold liquid-liquid extraction using a mixture of methanol:water:chloroform in 5:3:5 (v/v), from which the polar phase was recovered for hydrophilic interaction ultra-high performance liquid chromatography mass spectrometry (UHPLC-MS) analysis. The UHPLC consisted of a binary pump, a cooled autosampler, and a column oven (DIONEX Ultimate 3000 UHPLC+ Focused, Thermo Scientific), connected to a triple quadrupole spectrometer (TSQ Vantage, Thermo Scientific) equipped with a heated electrospray ionisation (H-ESI) source. Of each sample, 2 μL were injected into the analytical column (2.1 mm×150 mm, 5 μm pore size, 200 Å HILICON iHILIC®-Fusion(P)), guarded by a pre-column (2.1 mm×20 mm, 200 Å HILICON iHILIC®-Fusion(P) Guard Kit) operating at 35° C. The mobile phase (10 mM ammonium acetate at pH 9, A, and acetonitrile, B) was pumped at 0.25 mL/min flow rate over a linear gradient of decreasing organic solvent (0.5-16 min, 90-25% B), followed by re-equilibration for a total run time of 30 min. The MS operated in positive mode at 3500 V with multiple reaction monitoring (MRM). The software Xcalibur v4.1.31.9 (Thermo Scientific) was used for instrument control, data acquisition and processing. Retention time and mass detection was confirmed by authentic standards.
Even at such relatively low dose, NRH achieved similar increases in intracellular NAD+ levels to those reached with NR at 50-fold higher concentrations.
NRH actions were also extremely fast (FIG. 3), as significant increases in NAD+ levels were observed within 5 minutes after NRH treatment.

C2C12 myotubes = test: NAD+ levels in C2C12 myotubes after NRH treatment; type: cell-based
Protocol: The ability of NRH to potently increase NAD+ was tested as well in other cell type models.

[1] = tested on: NRH-induced NAD+ Synthesis; test: Intracellular NAD-related metabolites after NRH or NR treatment; type: cell-based
Excerpt: as §1, with “standards. […]” for “standards.”

[2] = Circulating NAM, NRH and NR after intraperitoneal injection; type: in vivo, mice; settings: mouse, in vivo, ip
Excerpt: as §1
The above results prompted us to test whether NRH could act as an effective NAD+ precursor in vivo. For this, we first intraperitoneally (IP) injected mice with either NR or NRH (500 mg/kg).

[3] = tested on: NAD+ levels in liver, skeletal muscle and kidney; test: Tissue NAD+ levels after oral gavage of NR or NRH; type: in vivo, C57BI/6NTac mice
Protocol: 8 week-old C57BI/6NTac mice were orally gavaged with either saline (as vehicle), NR (500 mg/kg) or NRH (500 mg/kg). After 1 hour, liver, skeletal muscle and kidney NAD^+ levels were evaluated. All results are expressed as mean +/−SEM of n=5 mice per group. * indicates statistical difference at p<0.05 vs. vs. saline-treated mice. # indicates statistical difference at p<0.05 vs. NR treated mice.
(§2) Oral administration of NRH led to very similar results to those observed after IP administration. […] In contrast, NR levels were undetectable at 1 h after NR administration. As expected, NR treatment led to large increases in circulating NAM, which where ˜4-fold higher than those observed after NRH treatment.

[4] = parameters: species or system mice; settings: mouse, in vivo, po
Excerpt: as §1, §2

[5] = tested on: cisplatin-induced acute kidney injury; type: in vivo, C57BI/6NTac mice
Protocol: Simultaneously, mice were intraperitoneally injected with PBS (as vehicle) or NRH (250 mg/kg). PBS or NRH was injected at 24, 48 and 72 h after the initiation of the experiment. Kidneys of the mice were harvested, 4 h after the last injection, and NAD+ levels were analyzed in the kidney through mass spectrometry. All results are expressed as mean +/−SEM of n=5 mice per group. * indicates statistical difference at p<0.05 vs. vs. respective saline-treated mice
FIG. 7. […] Simultaneously, mice were intraperitoneally injected or not with PBS (as vehicle) or NRH (250 mg/kg) at 24, 48 and 72 h after the initiation of the experiment. Mice were sacrificed 4 h after the last injection, and plasma was collected to measure blood urea nitrogen levels. All results are expressed as mean +/−SEM of n=5 mice per group. * indicates statistical difference at p<0.05 vs. vs. respective saline-treated mice
Simultaneously, mice were intraperitoneally injected or not with PBS (as vehicle) or NRH (250 mg/kg). Urine was collected 24 h later to evaluate urea levels by NMR. All results are expressed as mean +/−SEM of n=5 mice per group. * indicates statistical difference at p<0.05 vs. vs. respective saline-treated mice.
Simultaneously, mice were intraperitoneally injected or not with PBS (as vehicle) or NRH (250 mg/kg). PBS or NRH were then injected at 24, 48 and 72 h after the initiation of the experiment. Mice were sacrificed 4 h after the last injection, and kidneys were fixed in OCT and used for immunohistochemistry against cleaved caspase 3. The cleaved caspase 3 staining was then quantified against the total area, using 10 images per mouse, 5 mice per group. All results are expressed as mean +/−SEM. * indicates statistical difference at p<0.05 vs. vs. respective saline-treated mice.
Simultaneously, mice were intraperitoneally injected or not with PBS (as vehicle) or NRH (250 mg/kg). PBS or NRH were then injected at 24, 48 and 72 h after the initiation of the experiment. 4 h after the last injection, and kidneys were obtained to isolate mRNA and analyze by qPCR makers of renal dysfunction (TGF-b1), glomerular dysfunction (fibronectin), apoptosis (BAX) and ER stress (BIP). All values are expressed as mean +/−SEM of n=4 mice per group. * indicates statistical difference at p<0.05 vs. respective vehicle-injected mice. # indicates statistical difference at p<0.05 vs. the respective mice in the control group.
Kidneys were harvested 4 hrs after the last NRH injection.

[6] = cisplatin 20 mg/kg, NRH 250 mg/kg
[7] = kidney qPCR, cisplatin plus NRH

SMILES: NC(=O)C1=CN([C@@H]2O[C@H](CO)[C@@H](O)[C@H]2O)C=CC1 [NRH, dihydro-1-beta-D-ribofuranosyl-3-pyridinecarboxamide]
- ability to increase intracellular NAD+ compared with NR (AML12 hepatocytes; AML12 hepatocytes): superior to that of NR
- time to significant increases in NAD+ levels after treatment (AML12 hepatocytes; AML12 hepatocytes): ≤ 5 min
- increase in intracellular NAD+ levels at maximal effect (AML12 hepatocytes; NRH around the millimolar range): more than 10 fold
- fold higher NR concentration needed for similar increases in intracellular NAD+ levels (AML12 hepatocytes; NRH at 10 μM vs NR): 50 fold
- concentration of maximal effects on NAD+ synthesis (AML12 hepatocytes; dose-response): around the millimolar range
- concentration at which NAD+ levels are significantly increased (AML12 hepatocytes; dose-response, AML12 hepatocytes): 10 µM
- NAD+ levels (C2C12 myotubes): highly elevated NAD+ levels
- intracellular detection of NRH and NMNH ([1]; 5 minutes after treatment): could be detected intracellularly
- intracellular NR and NMN ([1]; after treatment, compared with NR): increase in intracellular NR and NMN, greater than that triggered by NR itself
- NR in circulation after NRH treatment [2]: detectable in circulation after NRH treatment at much higher levels than those detected after NR injection itself
- NRH in circulation [2]: detectable in circulation
- NAM levels in circulation ([2]; 500 mg/kg): only a very mild increase
- effect on hepatic NAD+ levels ([3]; oral administration, compared with NR): more potent effect on hepatic NAD+ levels than NR
- NAD+ precursor activity in liver, muscle and kidney ([3]; oral gavage 500 mg/kg, after 1 hour (FIG. 5)): orally active NAD+ precursor in liver, muscle and kidney
- NRH concentration in plasma [4]: 11.16 ± 1.74 µM
- administered compound in plasma [4]: detectable in plasma
- NAD+ levels in kidney above control ([5]; 4 h after NRH supplementation): did not observe higher NAD^+ levels
- renal NADH levels ([5]; cisplatin 20 mg/kg IP, NRH 250 mg/kg IP at 0, 24, 48, 72 h, kidneys 4 h after last injection): prevented the drop in renal NAD^+ and NADH levels
- Me2PY and Me4PY levels in urine [5, 6]: further increased
- methyl-NAM levels in kidney [5, 6]: further increased methyl-NAM levels in kidney
- PARP activity ([5]; cisplatin mice treated with NRH): higher
- kidney structure (tubular necrosis, glomeruli dilatation, inflammation, cast formation) ([5]; histology, cisplatin 20 mg/kg, NRH 250 mg/kg): largely prevented
- presence of kidney casts ([5]; histology, cisplatin plus NRH): major decrease in the presence of kidney casts
- renal cell apoptosis (cleaved caspase 3 staining) ([5]; kidney immunohistochemistry, cisplatin plus NRH (FIG. 9)): protects against cisplatin-induced renal cell apoptosis
- BAX mRNA (marker of apoptosis) [5, 7]: prevented cisplatin-induced increases
- BIP mRNA (marker of ER stress) [5, 7]: prevented cisplatin-induced increases
- TGF-β1 expression [5, 7]: prevent the increase in TGF-β1 expression
- fibronectin mRNA (marker of glomerular dysfunction) [5, 7]: prevented cisplatin-induced increases
